Results on three compounds are retold here after US12655116B2, “Substituted isophthalic acid diamides” (Bayer Aktiengesellschaft, priority 2020, dated 2026).

Experiment [1] has as its system ABUTH. The experiment in a line: Pre-emergence herbicidal action against ABUTH. Type of experiment: in vivo, Abutilon theophrasti. Particulars: for Pre-emergence action against ABUTH (herbicidal activity): 80 g/ha, scored visually after 3 weeks vs untreated controls (100% = plants have died, 0% = like control plants); for Pre-emergence action against ABUTH (herbicidal activity in percent): dosage 20 g/ha, scored visually after 3 weeks vs untreated controls, 100% = plants have died, 0% = like control plants. In outline:
(§1)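 Sandy loam pots, seeds covered with soil, then surface-treated with WP or EC formulations at 600–800 l/ha water plus 0.2% wetting agent. Greenhouse, 3 weeks. Percent damage vs untreated controls.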

Experiment [2] has as its system ALOMY. The experiment in a line: Pre-emergence herbicidal action against ALOMY. Type of experiment: in vivo, Alopecurus myosuroides. The settings on record: for Pre-emergence action against ALOMY (herbicidal activity): 80 g/ha, scored visually after 3 weeks vs untreated controls (100% = plants have died, 0% = like control plants). Summed up:
as §1

Experiment [3] has as its system AMARE. The experiment in a line: Pre-emergence herbicidal action against AMARE. The class given is in vivo, Amaranthus retroflexus. Summed up:
as §1

Experiment [4] has as its system ECHCG. The experiment in a line: Pre-emergence herbicidal action against ECHCG. The class given is in vivo, Echinochloa crus-galli. Summed up: as §1
In experiment [5] the test system is MATIN. The experiment in a line: Pre-emergence herbicidal action against MATIN. The class given is in vivo, Matricaria inodora. Summed up: as §1
In experiment [6] the test system is PHBPU. The experiment in a line: Pre-emergence herbicidal action against PHBPU. Type of experiment: in vivo, Pharbitis purpurea. The settings on record: dosage 80 g/ha. From the text: Seeds of monocotyledonous and dicotyledonous weed plants and crop plants are laid out in sandy loam soil in wood-fiber pots and covered with soil. The compounds of the invention, formulated in the form of wettable powders (WP) or as emulsion concentrates (EC), are then applied to the surface of the covering soil in the form of an aqueous suspension or emulsion at a water application rate equivalent to 600 to 800 l/ha, with addition of 0.2% wetting agent. After the treatment, the pots are placed in a greenhouse and kept under good growth conditions for the trial plants. The damage to the test plants is scored visually after a test period of 3 weeks by comparison with untreated controls (herbicidal activity in percent (%): 100% activity=the plants have died, 0% activity=like control plants). […] The tables below illustrate, in an illustrative manner, the post-emergence herbicidal action of the compounds of the invention, the herbicidal activity being stated in percent.

Experiment [7] relates to SETVI. The experiment in a line: Pre-emergence herbicidal action against SETVI. Type of experiment: in vivo, Setaria viridis. In outline:
as §1

In experiment [8] the test system is ABUTH. Briefly: Post-emergence herbicidal action against ABUTH. The class given is in vivo, Abutilon theophrasti. The settings on record: visual assessment about 3 weeks after treatment vs untreated controls. In outline:
(§2)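 Herbicidal action is a visual percentage rating (0% = as untreated control, 100% = plants dead) made roughly 3 weeks after treatment. Plants were grown in sandy loam in the greenhouse and treated at the one-leaf stage, 2 to 3 weeks post-sowing. Treatment was a foliar spray of wettable-powder or emulsion-concentrate formulations at 600 to 800 l/ha water plus 0.2% wetting agent.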

Experiment [9] has as its system ALOMY. Briefly: Post-emergence herbicidal action against ALOMY. Type of experiment: in vivo, Alopecurus myosuroides. The settings on record: visual assessment about 3 weeks after treatment vs untreated controls. Summed up: as §2
Experiment [10] deals with AMARE. Briefly: Post-emergence herbicidal action against AMARE. The class given is in vivo, Amaranthus retroflexus. The settings on record: 20 g/ha, visual assessment about 3 weeks after treatment, 100% = plants have died, 0% = like control plants. Summed up: as §2
Experiment [11] concerns ECHCG. Briefly: Post-emergence herbicidal action against ECHCG. The class given is in vivo, Echinochloa crus-galli. In outline:
as §2

Experiment [12] has as its system SETVI. Briefly: Post-emergence herbicidal action against SETVI. Type of experiment: in vivo, Setaria viridis. Particulars: dosage 20 g/ha. In outline: as §2
For experiment [13], the system named is AVEFA. The experiment in a line: Pre-emergence herbicidal action against AVEFA. Type of experiment: in vivo, Avena fatua. Particulars: 80 g/ha, pre-emergence. Summed up: as §1
Experiment [14] deals with VIOTR. Briefly: Pre-emergence herbicidal action against VIOTR. The class given is in vivo, Viola tricolor. Summed up: as §1
The subject of experiment [15] is MATIN. Briefly: Post-emergence herbicidal action against MATIN. Type of experiment: in vivo, Matricaria inodora. Summed up:
as §2

Experiment [16] relates to VIOTR. Briefly: Post-emergence herbicidal action against VIOTR. Type of experiment: in vivo, Viola tricolor. Summed up: as §2
Experiment [17] relates to VERPE. The experiment in a line: Pre-emergence herbicidal action against VERPE. The class given is in vivo, Veronica persica. Summed up:
as §1

The subject of experiment [18] is DIGSA. Briefly: Pre-emergence herbicidal action against DIGSA. Type of experiment: in vivo, Digitaria sanguinalis. Summed up: as §1
Experiment [19] relates to PHBPU. The experiment in a line: Post-emergence herbicidal action against PHBPU. Type of experiment: in vivo, Pharbitis purpurea. The settings on record: dosage 20 g/ha. In outline: as §2
In experiment [20] the test system is DIGSA. The experiment in a line: Post-emergence herbicidal action against DIGSA. The class given is in vivo, Digitaria sanguinalis. Summed up: as §2
The mark [21] stands for this setting: 20 g/ha, scored visually after 3 weeks vs untreated controls, 100% = plants have died, 0% = like control plants.
The mark [22] stands for this setting: 80 g/ha, scored visually after 3 weeks vs untreated controls (100% = plants have died, 0% = like control plants).

`COCCNC(=O)c1c(Br)ccc(C(=O)Nc2nnnn2C)c1Cl` [Example 1-186]: the “Pre-emergence action against ABUTH (herbicidal activity)” value in experiment [1] worked out at 100%. Moreover, in experiment [1], the “Pre-emergence action against ABUTH (herbicidal activity in percent)” value was determined as 100%. Further, in experiment [2], the “Pre-emergence action against ALOMY (herbicidal activity)” value worked out at 90%. Also, the results for the “Pre-emergence action against AMARE in %” value in [3] (setting [21]) and in experiment [3] (setting [22]) were 80% and 100%, respectively. Further, in [4] (80 g/ha), the “Pre-emergence action against ECHCG in %” value is given as 80%. In experiment [5] (dosage 80 g/ha), the “Pre-emergence action against MATIN in %” value is recorded as 90%. The “Pre-emergence action against PHBPU in %” value in [6] came out at 80%. For the same compound, in experiment [7] (dosage 80 g/ha), the “Pre-emergence action against SETVI in %” value stood at 80%. In addition, the “Post-emergence action against ABUTH in %” value in experiment [8] (dosage 5 g/ha) and in experiment [8] (dosage 20 g/ha) was 90% throughout. Moreover, the figures for the “Post-emergence action against ALOMY in %” value in experiment [9] (dosage 5 g/ha) and in experiment [9] (dosage 20 g/ha) were 80% and 90%, respectively. Further, the “Post-emergence action at 20 g/ha against AMARE in %” value in experiment [10] was determined as 100%. Further, the “Post-emergence action against ECHCG in %” value in [11] (dosage 20 g/ha) was 90%. For the same compound, the “Post-emergence action against SETVI in %” value in experiment [12] is 80%.
Turning to `CCn1nnnc1NC(=O)c1ccc(Br)c(C(=O)NC(C)C)c1Cl` [Example 2-185], the “Pre-emergence action against ABUTH (herbicidal activity)” value in experiment [1] was 100%. Further, the “Pre-emergence action against ABUTH (herbicidal activity in percent)” value in experiment [1] amounted to 100%. Besides, the “Pre-emergence action against ALOMY (herbicidal activity)” value in experiment [2] came to 90%. For the same compound, the “Pre-emergence action against AMARE in %” value in experiment [3] (setting [21]) and in [3] (setting [22]) was 100% in each case. In [13], the “Pre-emergence action against AVEFA in %” value stood at 100%. Besides, the “Pre-emergence action against ECHCG in %” value in [4] (80 g/ha) came to 90%. In addition, the “Pre-emergence action against MATIN in %” value in experiment [5] (dosage 20 g/ha) and in experiment [5] (dosage 80 g/ha) was 100% in each case. The “Pre-emergence action against PHBPU in %” value in experiment [6] is reported as 100%. For the same compound, in experiment [7] (dosage 80 g/ha), the “Pre-emergence action against SETVI in %” value came out at 100%. The “Pre-emergence action against VIOTR in %” value in experiment [14] (dosage 20 g/ha) was 80%; in experiment [14] (dosage 80 g/ha) it was 100%. Further, the “Post-emergence action against ABUTH in %” value in [8] (dosage 5 g/ha) was 90%; in experiment [8] (dosage 20 g/ha) it was 100%. Also, the “Post-emergence action against ALOMY in %” value in experiment [9] (dosage 20 g/ha) is 90%. For the same compound, the “Post-emergence action at 20 g/ha against AMARE in %” value in experiment [10] was found to be 100%. Further, the “Post-emergence action against ECHCG in %” value in experiment [11] (dosage 20 g/ha) is on record as 100%. For the same compound, the “Post-emergence action against MATIN in %” value is 80% in [15] (dosage 5 g/ha) and 90% in experiment [15] (dosage 20 g/ha). For the same compound, the “Post-emergence action against SETVI in %” value in experiment [12] is recorded as 80%. Also, the “Post-emergence action against VIOTR in %” value in experiment [16] (5 g/ha) and in experiment [16] (20 g/ha) was 100% throughout.
As to `Cc1nnc(NC(=O)c2ccc(C(F)(F)F)c(C(=O)NC3CCC3)c2C)o1` [Example 6-256], the “Pre-emergence action against ABUTH (herbicidal activity)” value in experiment [1] was 100%. For the same compound, the “Pre-emergence action against ALOMY” value in experiment [2] (20 g/ha, scored visually after 3 weeks, 100% = plants have died, 0% = like control plants) is recorded as 80%. The “Pre-emergence action against ALOMY (herbicidal activity)” value in [2] turned out to be 90%. Moreover, the “Pre-emergence action against AMARE in %” value in [3] (setting [21]) is recorded as 90%; in experiment [3] (setting [22]) it was 100%. Besides, the “Pre-emergence action against AVEFA in %” value in experiment [13] is reported as 80%. For the same compound, the “Pre-emergence action against ECHCG in %” value in [4] (20 g/ha) is 80%; in [4] (80 g/ha), 100%. Also, the “Pre-emergence action against MATIN in %” value in experiment [5] (dosage 80 g/ha) is given as 90%. The “Pre-emergence action against PHBPU in %” value in [6] worked out at 80%. Moreover, the “Pre-emergence action against SETVI in %” value is 80% in experiment [7] (dosage 20 g/ha) and 100% in experiment [7] (dosage 80 g/ha). Besides, the “Pre-emergence action against VERPE in %” value in experiment [17] (dosage 20 g/ha) and in experiment [17] (dosage 80 g/ha) was 80% each time. Besides, the “Pre-emergence action against VIOTR in %” value in [14] (dosage 20 g/ha) and in experiment [14] (dosage 80 g/ha) was 90% in each case. For the same compound, the “Pre-emergence action against DIGSA in %” value came to 90% in [18] (dosage 20 g/ha) and 100% in experiment [18] (dosage 80 g/ha). Moreover, the “Post-emergence action against ABUTH in %” value is 80% in [8] (dosage 5 g/ha) and 90% in experiment [8] (dosage 20 g/ha). For the same compound, in [10], the “Post-emergence action at 20 g/ha against AMARE in %” value was 90%. Moreover, the “Post-emergence action against ECHCG in %” value in experiment [11] (dosage 5 g/ha) and in experiment [11] (dosage 20 g/ha) was 90% each time. In experiment [19], the “Post-emergence action against PHBPU in %” value is 90%. Further, in experiment [20] (5 g/ha), the “Post-emergence action against DIGSA in %” value is listed as 80%. The “Post-emergence action against DIGSA” value in experiment [20] (20 g/ha) is recorded as 90%.
